Experimental data as given in publication PMC7722249 (Journal of medicinal chemistry, 2019).
Read-outs that look alike come from different tables or passages of the source.

Tests used:
[1] = target: DNA polymerase β (Homo sapiens, UniProt P06746); assay: Human DNA polymerase β inhibition; type: biochemical
[2] = target: T1, DNA polymerase γ (Homo sapiens, UniProt P54098); assay: Human DNA polymerase γ inhibition; type: biochemical
T1 sequence (P54098 1-1239): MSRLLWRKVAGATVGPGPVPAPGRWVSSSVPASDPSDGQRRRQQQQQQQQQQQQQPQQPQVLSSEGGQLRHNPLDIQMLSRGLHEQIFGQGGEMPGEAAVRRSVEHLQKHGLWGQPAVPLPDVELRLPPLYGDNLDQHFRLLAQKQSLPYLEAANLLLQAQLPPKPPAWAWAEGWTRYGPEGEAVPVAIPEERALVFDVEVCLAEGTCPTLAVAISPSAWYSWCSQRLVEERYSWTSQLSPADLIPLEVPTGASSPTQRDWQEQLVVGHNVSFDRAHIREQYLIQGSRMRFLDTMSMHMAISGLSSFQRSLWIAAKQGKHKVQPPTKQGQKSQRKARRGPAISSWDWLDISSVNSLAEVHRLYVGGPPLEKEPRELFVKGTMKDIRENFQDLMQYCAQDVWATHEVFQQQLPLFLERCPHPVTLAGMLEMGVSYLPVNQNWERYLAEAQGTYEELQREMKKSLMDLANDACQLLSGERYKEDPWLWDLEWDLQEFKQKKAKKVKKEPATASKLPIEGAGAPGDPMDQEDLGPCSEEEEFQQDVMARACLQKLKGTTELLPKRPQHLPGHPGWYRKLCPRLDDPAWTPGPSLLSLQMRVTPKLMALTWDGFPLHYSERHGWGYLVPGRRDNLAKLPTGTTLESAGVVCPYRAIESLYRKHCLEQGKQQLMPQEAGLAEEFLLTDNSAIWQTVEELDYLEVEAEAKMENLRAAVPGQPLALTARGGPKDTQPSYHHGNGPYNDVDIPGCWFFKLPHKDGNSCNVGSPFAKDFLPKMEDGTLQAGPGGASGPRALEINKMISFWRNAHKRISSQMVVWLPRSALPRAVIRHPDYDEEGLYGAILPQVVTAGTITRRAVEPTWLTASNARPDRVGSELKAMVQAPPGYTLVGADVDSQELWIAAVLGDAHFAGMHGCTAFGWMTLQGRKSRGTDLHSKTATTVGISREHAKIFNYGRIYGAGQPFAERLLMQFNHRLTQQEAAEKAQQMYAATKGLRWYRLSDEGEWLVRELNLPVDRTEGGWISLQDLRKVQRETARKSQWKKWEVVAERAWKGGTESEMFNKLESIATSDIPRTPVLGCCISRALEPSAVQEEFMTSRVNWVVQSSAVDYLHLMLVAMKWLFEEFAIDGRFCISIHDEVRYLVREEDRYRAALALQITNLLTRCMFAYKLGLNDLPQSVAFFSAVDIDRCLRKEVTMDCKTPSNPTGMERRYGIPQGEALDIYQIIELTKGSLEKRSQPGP

[3] = test system: Salmonella typhimurium (TA98, TA100, TA1535, and TA1537) and Escherichia coli WP2 uvrA (pKM101); conditions: cited from earlier work
[4] = test system: HepG2 cells; conditions: HepG2, 14 day; for mitochondrial toxicity: at 10 μM
[5] = test system: HCV GT1b/3a chimeric replicon; assay: Chimeric replicon GT1b/3a in Huh-7 cells; type: cell-based; conditions: Hepatitis C virus, Huh-7, read-out: EC90 GT1b/3a
[6] = test system: HCV GT1b-WT replicon; assay: GT1b stably transfected replicon in Huh-7 cells; type: cell-based; conditions: Hepatitis C virus; for EC50: Huh-7, read-out: EC50 GT1b-WT; for EC90: Huh-7, read-out: EC90 GT1b-WT
[7] = In vitro nephrotoxicity in HK-2 cells, 3 day assay; conditions: human
[8] = Cardiac toxicity in stem cell-induced ventricular cardiomyocytes; conditions: human
[9] = target: T2, human ether-à-go-go-related gene (hERG) potassium channels (Homo sapiens, UniProt Q12809); conditions: cited from earlier work
T2 sequence (Q12809 whole entry): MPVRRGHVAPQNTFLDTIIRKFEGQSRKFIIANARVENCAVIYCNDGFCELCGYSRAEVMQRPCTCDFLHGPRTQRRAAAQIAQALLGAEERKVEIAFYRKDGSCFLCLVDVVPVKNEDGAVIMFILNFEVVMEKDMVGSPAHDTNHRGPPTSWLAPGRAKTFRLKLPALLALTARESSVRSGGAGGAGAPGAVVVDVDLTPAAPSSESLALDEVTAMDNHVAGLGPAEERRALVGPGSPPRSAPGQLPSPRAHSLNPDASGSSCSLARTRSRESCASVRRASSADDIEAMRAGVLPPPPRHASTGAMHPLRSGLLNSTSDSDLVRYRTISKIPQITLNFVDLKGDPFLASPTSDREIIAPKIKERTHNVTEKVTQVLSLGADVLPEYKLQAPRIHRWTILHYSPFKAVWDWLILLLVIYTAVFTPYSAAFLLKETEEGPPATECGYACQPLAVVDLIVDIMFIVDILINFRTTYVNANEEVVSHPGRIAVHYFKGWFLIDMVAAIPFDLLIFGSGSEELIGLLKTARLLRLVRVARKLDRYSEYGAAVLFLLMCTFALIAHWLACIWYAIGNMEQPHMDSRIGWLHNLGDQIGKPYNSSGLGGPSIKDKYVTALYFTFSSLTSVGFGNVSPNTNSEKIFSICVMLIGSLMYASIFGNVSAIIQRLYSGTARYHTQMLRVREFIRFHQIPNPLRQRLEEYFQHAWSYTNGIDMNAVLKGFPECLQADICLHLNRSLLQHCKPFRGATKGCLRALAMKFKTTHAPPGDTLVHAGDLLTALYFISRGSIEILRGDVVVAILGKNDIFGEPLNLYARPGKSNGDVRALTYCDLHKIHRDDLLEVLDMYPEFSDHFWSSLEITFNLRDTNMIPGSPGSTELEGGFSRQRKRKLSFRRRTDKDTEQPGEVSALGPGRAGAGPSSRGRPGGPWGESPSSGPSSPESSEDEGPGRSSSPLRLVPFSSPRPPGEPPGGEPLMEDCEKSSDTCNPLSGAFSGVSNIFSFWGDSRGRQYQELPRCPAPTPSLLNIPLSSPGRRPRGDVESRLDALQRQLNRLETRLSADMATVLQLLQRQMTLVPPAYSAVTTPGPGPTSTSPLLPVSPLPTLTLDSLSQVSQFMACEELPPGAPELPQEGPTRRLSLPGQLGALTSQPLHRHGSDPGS

[10] = in vitro; conditions: human, microsomes
[11] = test system: BFU-E lineage; assay: Bone marrow toxicity, BFU-E; type: cell-based, human; conditions: human, Cytotoxicity IC50, bone marrow BFU-E, three separate donors
[12] = test system: CFU-GM lineage; assay: Bone marrow toxicity, CFU-GM; type: cell-based, human; conditions: human, Cytotoxicity IC50, bone marrow CFU-GM, three separate donors
[13] = HepG2 cytotoxicity, 3 day, glucose/galactose media; type: cell-based; conditions: human
[14] = Stability in simulated gastric fluid; type: physicochemical; conditions: 37 °C
[15] = test system: HCV GT2a; assay: GT2a infectious assay in Huh-7 cells; type: cell-based; conditions: Hepatitis C virus, Huh-7, read-out: EC90 GT2a
[16] = HepG2 cytotoxicity, 14 day, glucose/galactose media; type: cell-based; conditions: human
[17] = Stability in simulated intestinal fluid; conditions: 37 °C
[18] = test system: Salmonella typhimurium (TA98, TA100, TA1535, and TA1537) and Escherichia coli WP2 uvrA (pKM101); assay: Mini Ames reverse mutation study; conditions: with and without S9 mix
[19] = for Clint(liver): scaled from Clint(mic)
[20] = target: T2, human ether-à-go-go-related gene (hERG) potassium channels; assay: hERG whole-cell patch clamp in CHO cells; type: cell-based
[21] = test system: HCV GT1b/4a chimeric replicon; assay: Chimeric replicon GT1b/4a in Huh-7 cells; type: cell-based; conditions: Hepatitis C virus, Huh-7, read-out: EC90 GT1b/4a
[22] = Stability in human intestinal microsomes
[23] = test system: HCV GT1b/5a chimeric replicon; assay: Chimeric replicon GT1b/5a in Huh-7 cells; type: cell-based; conditions: Hepatitis C virus, Huh-7, read-out: EC90 GT1b/5a
[24] = in vitro; conditions: African green monkey
[25] = test system: burst forming unit-erythroid (BFU-E) lineage; assay: Bone marrow toxicity, BFU-E; type: cell-based, human; conditions: positive control, at the concentration tested
[26] = test system: colony-forming unit-granulocyte, macrophage (CFU-GM) lineage; assay: Bone marrow toxicity, CFU-GM; type: cell-based, human; conditions: positive control, at the concentration tested

What does the source list for Cc1cn([C@H]2CC[C@@H](COP(=O)(O)OP(=O)(O)OP(=O)(O)O)O2)c(=O)[nH]c1=O [ddTTP]?
IC50 [1]: 8.4 ± 0.11 µM; IC50 [2]: 100 ± 70 nM

Which mutagenicity [3] does the source give for CC(C)OC(=O)[C@H](C)N[P@](=O)(OC[C@H]1O[C@@H](n2ccc(=O)[nH]c2=O)[C@](C)(F)[C@@H]1O)Oc1ccccc1 [SOF, sofosbuvir, reference compound] here?
The mutagenicity was “negative for mutagenicity”.

What about the “MtDNA content % of control (range)” value ([4]; 12.5 μM) of the same compound?
Its value is 96 (90–100) % of control.

What about the “MtDNA content % of control (range)” value ([4]; 50 μM) of the same compound?
Its value is 130 (120–150) % of control.

What about the EC90 [5] of the same compound?
Its EC90 is 370 ± 10 nM.

And the EC50 [6]?
The EC50 was 34 nM.

What about the EC90 [6] of the same compound?
Its EC90 is 150 ± 30 nM.

What about the IC50 at 3 days [7] of the same compound?
The IC50 at 3 days was greater than 300 µM.

What about the IC50 [8] of the same compound?
The IC50 was greater than 100 µM.

And the hERG channel inhibition [9]?
The hERG channel inhibition was “free from hERG channel inhibition”.

Which microsomal CLint [10] does the source give for O=C(O)Cc1ccccc1Nc1c(Cl)cccc1Cl [diclofenac, reference compound] here?
Its microsomal CLint is 129 µL/min/mg.

What does the source list for CC(C)OC(=O)[C@H](C)NP(=O)(OC[C@H]1O[C@@H](n2ccc(=O)[nH]c2=O)[C@](F)(Br)[C@H]1O)Oc1ccccc1 (mixture of isomers) [Compound 14]?
MtDNA content % of control (range) ([4]; 50 μM): 100 (99–104) % of control; measurable mitochondrial toxicity (none up to) [4]: > 50 µM; IC50 [11]: > 100 µM; IC50 [12]: > 100 µM; IC50 at 3 days [13]: > 100 µM

For CC(C)OC(=O)[C@H](C)N[P@@](=O)(OC[C@H]1O[C@@H](n2ccc(=O)[nH]c2=O)[C@@](F)(Br)[C@@H]1O)Oc1ccccc1 [Compound 27, Isopropyl ((R)-(((2R,3R,4S,5R)-4-Bromo-5-(2,4-dioxo-3,4-dihydro-pyrimidin-1(2H)-yl)-4-fluoro-3-hydroxytetrahydrofuran-2-yl)-methoxy)(phenoxy)phosphoryl)-L-alaninate], which “simulated gastric fluid (24 h), loss” value [14] is on record?
Its value is roughly 2% loss.

And the “MtDNA content % of control (range)” value ([4]; 50 μM)?
Its value is 65 (65–65) % of control.

What about the “lactic acid production (% of control)” value ([4]; 50 μM) of the same compound?
Its value is 100 ± 6.2 % of control.

And the EC90 [15]?
The EC90 was 830 ± 10 nM.

What about the IC50 at 14 days [16] of the same compound?
The IC50 at 14 days was greater than 100 µM.

And the half-life [10]?
Its half-life is 18.4 min.

What about the microsomal CLint [10] of the same compound?
Its microsomal CLint is 75.3 µL/min/mg.

What about the “stability in simulated intestinal fluid (24 h)” value [17] of the same compound?
The value was “stable”.

What about the “mutagenicity (mini Ames)” value [18] of the same compound?
Its value is “negative for mutagenicity”.

What about the EC90 [5] of the same compound?
Its EC90 is 1600 ± 20 nM.

And the IC50 [11]?
Its IC50 is greater than 100 µM.

And the “Clint(liver)” value [19]?
Its value is 67.8 mL/min/kg.

And the IC50 [20]?
Its IC50 is greater than 30 µM.

And the EC50 [6]?
Its EC50 is 92 nM.

And the EC90 [21]?
Its EC90 is 870 ± 230 nM.

What about the half-life [22] of the same compound?
The half-life was 132 min.

And the IC50 [8]?
The IC50 was greater than 100 µM.

What about the IC50 [12] of the same compound?
The IC50 was greater than 100 µM.

What about the EC90 [23] of the same compound?
The EC90 was 800 ± 1500 nM.

And the IC50 at 3 days [13]?
The IC50 at 3 days was greater than 100 µM.

What about the CC50 [24] of the same compound?
Its CC50 is greater than 100 µM.

For O=c1ccn([C@@H]2O[C@H](CO)[C@@H](O)[C@]2(F)Br)c(=O)[nH]1 [Compound 12, 1-((2R, 3S, 4R, 5R)-3-Bromo-3-fluoro-4-hydroxy-5-(hydroxymethyl)tetrahydrofuran-2-yl)pyrimidine-2,4(1H,3H)-dione], which “MtDNA content % of control (range)” value ([4]; 50 μM) is on record?
Its value is 72 (63–83) % of control.

What about the “lactic acid production (% of control)” value ([4]; 50 μM) of the same compound?
The value was 69 ± 14 % of control.

What about the “measurable mitochondrial toxicity (none up to)” value [4] of the same compound?
The value was greater than 50 µM.

And the IC50 [12]?
The IC50 was greater than 100 µM.

What about the CC50 [24] of the same compound?
Its CC50 is greater than 100 µM.

With CC(C)OC(=O)[C@H](C)N[P@](=O)(OC[C@H]1O[C@@H](n2ccc(=O)[nH]c2=O)[C@@](F)(Br)[C@@H]1O)Oc1ccccc1 [Compound 28, Isopropyl ((S)-(((2R,3R,4S,5R)-4-Bromo-5-(2,4-dioxo-3,4-dihydro-pyrimidin-1(2H)-yl)-4-fluoro-3-hydroxytetrahydrofuran-2-yl)-methoxy)(phenoxy)phosphoryl)-L-alaninate] as the compound, how does the “simulated gastric fluid (24 h), loss” value [14] read?
Its value is roughly 2% loss.

What about the “MtDNA content % of control (range)” value ([4]; 12.5 μM) of the same compound?
Its value is 86 (79–93) % of control.

And the “MtDNA content % of control (range)” value ([4]; 25 μM)?
Its value is 110 (110–110) % of control.

And the “MtDNA content % of control (range)” value ([4]; 50 μM)?
Its value is 150 (150–150) % of control.

And the mitochondrial toxicity [4]?
Its mitochondrial toxicity is “no mitochondrial toxicity”.

What about the EC90 [15] of the same compound?
Its EC90 is 77 nM.

What about the IC50 at 14 days [16] of the same compound?
Its IC50 at 14 days is greater than 100 µM.

What about the half-life [10] of the same compound?
The half-life was 19.7 min.

What about the microsomal CLint [10] of the same compound?
The microsomal CLint was 70.2 µL/min/mg.

And the “stability in simulated intestinal fluid (24 h)” value [17]?
The value was “stable”.

And the “mutagenicity (mini Ames)” value [18]?
Its value is “negative for mutagenicity”.

What about the “remaining after 60 min” value ([19]; human liver microsomes) of the same compound?
Its value is 3%.

What about the “Clint(liver)” value [19] of the same compound?
Its value is 63.2 mL/min/kg.

And the IC50 [20]?
The IC50 was greater than 30 µM.

What about the EC90 [6] of the same compound?
Its EC90 is 74 ± 2 nM.

What about the EC90 [21] of the same compound?
Its EC90 is 130 ± 3 nM.

And the half-life [22]?
Its half-life is greater than 145 min.

What about the IC50 [8] of the same compound?
The IC50 was greater than 100 µM.

What about the EC90 [23] of the same compound?
Its EC90 is 83 ± 20 nM.

And the IC50 at 3 days [13]?
The IC50 at 3 days was greater than 100 µM.

And the CC50 [24]?
The CC50 was greater than 100 µM.

For Cc1cn([C@H]2C[C@H](N=[N+]=[N-])[C@@H](CO)O2)c(=O)[nH]c1=O [AZT, reference compound], which “toxicity in erythroid progenitors” value [25] is on record?
Its value is “high toxicity”.

And the “toxicity in myelomonocytic progenitors” value [26]?
Its value is “high toxicity”.

For Nc1ccn([C@H]2CC[C@@H](CO)O2)c(=O)n1 [ddC, β-D-2′,3′-dideoxycytidine, reference compound], which “MtDNA content % of control (range)” value ([4]; 10 μM) is on record?
The value was 7.3 % of control.

And the mitochondrial toxicity [4]?
The mitochondrial toxicity was “highly toxic”.
